We go through 26 compounds from patent US7348425B2, “Inhibitors of HCV replication” (Bristol-Myers Squibb Company, priority 2004, dated 2008).

For assay [1], the target named is T1, HCV NS5B RdRp genotype 1b (Hepatitis C virus genotype 1b, UniProt Q9WMX2).
T1 construct: The protein was expressed with an 18 amino acid C-terminal truncation to enhance the solubility; made in house; host or cells: E. coli BL21 (DE3), pET21a
The assay is described as follows: Standard HCV NS5B RdRp enzyme assay. The assay is classed as biochemical. Particulars: standard method. As for the experimental part:
HCVNS5B RdRp cloning, expression, and purification. The cDNA encoding the NS5B protein of HCV, genotype 1b, was cloned into the pET21a expression vector. The protein was expressed with an 18 amino acid C-terminal truncation to enhance the solubility. The E. coli competent cell line BL21 (DE3) was used for expression of the protein. Cultures were grown at 37° C. for ˜4 hours until the cultures reached an optical density of 2.0 at 600 nm. The cultures were cooled to 20° C. and induced with 1 mM IPTG. Fresh ampicillin was added to a final concentration of 50 μg/ml and the cells were grown overnight at 20° C.
Cell pellets (3 L) were lysed for purification to yield 15-24 mgs of purified NS5B. The lysis buffer consisted of 20 mM Tris-HCl, pH 7.4, 500 mM NaCl, 0.5% triton X-100, 1 mM DTT, 1 mM EDTA, 20% glycerol, 0.5 mg/ml lysozyme, 10 mM MgCl2, 15 ug/ml deoxyribonuclease I, and Complete TM protease inhibitor tablets (Roche). After addition of the lysis buffer, frozen cell pellets were resuspended using a tissue homogenizer. To reduce the viscosity of the sample, aliquots of the lysate were sonicated on ice using a microtip attached to a Branson sonicator. The sonicated lysate was centrifuged at 100,000×g for 1 hr at 4° C. and filtered through a 0.2 μm filter unit (Corning).
The protein was purified using three sequential chromatography steps: Heparin sepharose CL-6B, polyU sepharose 4B, and Hitrap SP sepharose (Pharmacia). The chromatography buffers were identical to the lysis buffer but contained no lysozyme, deoxyribonuclease I, MgCl2 or protease inhibitor and the NaCl concentration of the buffer was adjusted according to the requirements for charging the protein onto the column. Each column was eluted with a NaCl gradient which varied in length from 5-50 column volumes depending on the column type. After the final chromatography step, the resulting purity of the enzyme is >90% based on SDS-PAGE analysis. The enzyme was aliquoted and stored at −80° C.
Standard HCV NS5B RdRp enzyme assay. HCV RdRp genotype Ib assays were run in a final volume of 60 μl in 96 well plates (Costar 3912). The assay buffer is composed of 20 mM Hepes, pH 7.5, 2.5 mM KCl, 2.5 mM MgCl2, 1 mM DTT, 1.6 U RNAse inhibitor (Promega N2515), 0.1 mg/ml BSA (Promega R3961), and 2% glycerol. All compounds were serially diluted (3-fold) in DMSO and diluted further in water such that the final concentration of DMSO in the assay was 2%. HCV RdRp genotype 1b enzyme was used at a final concentration of 28 nM. A polyA template was used at 6 nM, and a biotinylated oligo-dT12 primer was used at 180 nM final concentration. Template was obtained commercially (Amersham 27-4110). Biotinylated primer was prepared by Sigma Genosys. ^3H-UTP was used at 0.6 μCi (0.29 μM total UTP). Reactions were initiated by the addition of enzyme, incubated at 30° C. for 60 min, and stopped by adding 25 μl of 50 mM EDTA containing SPA beads (4 μg/μl, Amersham RPNQ 0007). Plates were read on a Packard Top Count NXT after >1 hr incubation at room temperature.
The IC50 values for compounds were determined using seven different [I]. IC50 values were calculated from the inhibition using the formula y=A+((B−A)/(1+((C/x)^D))). FRET Assay Preparation. To perform the HCV FRET screening assay, 96-well cell culture plates were used. The FRET peptide (Anaspec, Inc.) (Taliani et al., Anal. Biochem. 240:60-67 (1996), hereby incorporated by reference in its entirety) contains a fluorescence donor, EDANS, near one end of the peptide and an acceptor, DABCYL, near the other end. The fluorescence of the peptide is quenched by […] resonance energy transfer (RET) between the donor and the acceptor, but as the NS3 protease cleaves the peptide the products are released from RET quenching and the fluorescence of the donor becomes apparent. […]

The subject of the next assay is HCV replicon. In words: HCV replicon luciferase assay. It is filed as cell-based, Hepatitis C virus. Particulars: Hepatitis C virus, luciferase method; read-out: EC50. The procedure:
To prepare plates, HCV replicon cells, with or without a Renilla luciferase reporter gene, were trypsinized and placed into each well of a 96-well plate with titrated test compounds added in columns 3 through 12; columns 1 and 2 contained a control compound (HCV protease inhibitor), and the bottom row contained cells without compound. The plates were then placed in a CO2 incubator at 37 degrees C.
Assays. Subsequent to addition of the test compounds described above (FRET Assay Preparation), at various times the plate was removed and Alamar blue solution (Trek Diagnostics, #00-100) was added per well as a measure of cellular toxicity. After reading in a Cytoflour 4000 instrument (PE Biosystems), plates were rinsed with PBS and then used for FRET assay by the addition of 30 ul of the FRET peptide assay reagent described above (FRET Assay Preparation) per well. The plate was then placed into the Cytoflour 4000 instrument which had been set to 340 excite/490 emission, automatic mode for 20 cycles and the plate read in a kinetic mode. Typically, the signal to noise using an endpoint analysis after the reads was at least three-fold. Alternatively, after Alamar blue reading, plates were rinsed with PBS, 50 ul of DMEM (high glucose) without phenol red was added and plates were then used for luciferase assay using the Promega Dual-Glo Luciferase Assay System.
Compound analysis was determined by quantification of the relative HCV replicon inhibition and the relative cytotoxicity values. To calculate cytoxicity values, the average Alamar Blue fluorescence signals from the control wells were set as 100% non-toxic. The individual signals in each of the compound test wells were then divided by the average control signal and multiplied by 100% to determine […]. To calculate the HCV replicon inhibition values, an average background value was obtained from the two wells containing the highest amount of HCV protease inhibitor at the end of the assay period. These numbers were similar to those obtained from naïve Huh-7 cells.
The background numbers were then subtracted from the average signal obtained from the control wells and this number was used as 100% activity. The individual signals in each of the compound test wells were then divided by the averaged control values after background subtraction and multiplied by 100% to determine percent activity. EC50 values for a protease inhibitor titration were calculated as the concentration which caused a 50% reduction in FRET or luciferase activity. The two numbers generated for the compound plate, percent cytoxicity and percent activity were used to determine compounds of interest for further analysis.

The structures appear in SMILES notation.

T1 sequence (Q9WMX2 2420-2992): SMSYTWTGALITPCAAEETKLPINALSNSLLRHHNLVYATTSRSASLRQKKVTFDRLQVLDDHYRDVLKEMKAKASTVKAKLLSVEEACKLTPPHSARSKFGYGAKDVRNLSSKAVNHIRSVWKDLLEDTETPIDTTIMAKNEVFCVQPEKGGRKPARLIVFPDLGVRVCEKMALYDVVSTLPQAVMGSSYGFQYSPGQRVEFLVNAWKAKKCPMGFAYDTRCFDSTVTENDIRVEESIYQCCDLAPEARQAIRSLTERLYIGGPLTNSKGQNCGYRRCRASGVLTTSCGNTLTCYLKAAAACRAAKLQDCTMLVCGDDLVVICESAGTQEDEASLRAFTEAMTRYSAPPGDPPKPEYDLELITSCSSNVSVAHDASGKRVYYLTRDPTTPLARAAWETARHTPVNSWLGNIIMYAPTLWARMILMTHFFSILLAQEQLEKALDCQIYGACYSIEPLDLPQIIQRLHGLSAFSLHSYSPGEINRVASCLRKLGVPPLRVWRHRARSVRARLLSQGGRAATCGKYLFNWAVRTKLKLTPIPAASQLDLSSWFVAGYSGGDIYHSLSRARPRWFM

As for `O=C(O)c1ccc2c(C3CCCCC3)c3n(c2c1)CC=Cc1ncccc1-3`, the IC50 – broadly, the concentration that gives 50% inhibition – in assay [1] was more than 1000 nM. Also, the EC50 (usually the concentration that produces a half-maximal response) in the assay with HCV replicon lay within 1000 to 10000 nM.
`O=C(O)c1ccc2c(C3CCCCC3)c3n(c2c1)CCCc1ncccc1-3` came in with an IC50 in assay [1] of 100 to 1000 nM. In the assay on HCV replicon, the EC50 lay within 100 to 1000 nM.
As to `O=C(O)/C=C/c1ccc(NC(=O)C2(NC(=O)c3ccc4c(C5CCCCC5)c5n(c4c3)CC=Cc3ccccc3-5)CCCC2)cc1`, the IC50 in assay [1] was in the range of 100 to 1000 nM. Further, in the assay on HCV replicon, the EC50 was less than 100 nM.
In turn, `O=C(O)/C=C/c1ccc(NC(=O)C2(NC(=O)c3ccc4c(C5CCCCC5)c5n(c4c3)CCCCNc3ccccc3-5)CCCC2)cc1` showed a half-inhibitory concentration (IC50) in assay [1] of more than 1000 nM. The EC50 in the assay on HCV replicon is less than 100 nM.
For `O=C(O)/C=C/c1ccc(NC(=O)C2(NC(=O)c3ccc4c(C5CCCCC5)c5n(c4c3)CC(=O)Nc3cccnc3-5)CCCC2)cc1`, the IC50 in assay [1] is 100 to 1000 nM. In addition, the EC50 with HCV replicon was less than 100 nM.
`NC(=O)C1Cc2ccccc2-c2c(C3CCCCC3)c3ccc(C(=O)O)cc3n2C1` (stereo not shown): in assay [1], the IC50 fell in the range of 100 to 1000 nM. Moreover, the EC50 with HCV replicon was 100 to 1000 nM.
The compound `CNC(=O)C1Cc2ccccc2-c2c(C3CCCCC3)c3ccc(C(=O)O)cc3n2C1` (stereo not shown) registered an IC50 in assay [1] of 100 to 1000 nM. The EC50 in the assay on HCV replicon fell in the range of 100 to 1000 nM.
As to `CN(C)C(=O)C1Cc2ccccc2-c2c(C3CCCCC3)c3ccc(C(=O)O)cc3n2C1` (stereo not shown), the concentration for half-maximal inhibition (IC50) in assay [1] fell in the range of 100 to 1000 nM. Besides, the EC50 with HCV replicon lay within 100 to 1000 nM.
Compound `O=C(O)c1ccc2c(C3CCCCC3)c3n(c2c1)CC(C(=O)NCCO)Cc1ccccc1-3` (stereo not shown) registered an IC50 in assay [1] of 100 to 1000 nM. For the same compound, in the assay with HCV replicon, the 50% effective concentration (EC50) lay within 100 to 1000 nM.
For `CN(C)CCNC(=O)C1Cc2ccccc2-c2c(C3CCCCC3)c3ccc(C(=O)O)cc3n2C1` (stereo not shown), in assay [1], the IC50 was in the range of 100 to 1000 nM. Besides, in the assay with HCV replicon, the EC50 was in the range of 100 to 1000 nM.
In turn, `CN(C)CCNC(=O)C1Cc2ccccc2-c2c(C3CCCCC3)c3ccc(C(=O)NS(=O)(=O)N(C)C)cc3n2C1` (stereo not shown) yielded an IC50 in assay [1] of 100 to 1000 nM. In addition, the EC50 in the assay on HCV replicon is 100 to 1000 nM.
Compound `CN1CCN(C(=O)C2Cc3ccccc3-c3c(C4CCCCC4)c4ccc(C(=O)O)cc4n3C2)CC1` (stereo not shown) displayed an IC50 in assay [1] of 100 to 1000 nM. The EC50 in the assay on HCV replicon lay in the range of 100 to 1000 nM.
In turn, `O=C(O)c1ccc2c(C3CCCCC3)c3n(c2c1)CC(C(=O)N1CCC(N2CCCC2)CC1)Cc1ccccc1-3` (stereo not shown) came in with an IC50 in assay [1] of 100 to 1000 nM. For the same compound, the EC50 in the assay on HCV replicon was 100 to 1000 nM.
In assay [1], `COC(=O)c1ccc2c(C3CCCCC3)c3n(c2c1)CCCc1ccccc1-3` [Example 2, Methyl 13-cyclohexyl-6,7-dihydro-5H-indolo[2,1-a][2]benzazepine-10-carboxylate] displayed an IC50 of more than 1000 nM. The EC50 in the assay with HCV replicon was more than 10000 nM.
Take `O=C(O)c1ccc2c(C3CCCCC3)c3n(c2c1)CCCc1ccccc1-3` [Example 3, 13-cyclohexyl-6,7-dihydro-5H-indolo[2,1-a][2]benzazepine-10-carboxylic acid]: in assay [1], the IC50 lay in the range of 100 to 1000 nM. Also, the EC50 in the assay on HCV replicon fell in the range of 100 to 1000 nM.
The compound `COC(=O)c1ccc2c(C3CCCCC3)c3n(c2c1)Cc1ccccc1-3` [Example 6, Methyl 11-cyclohexyl-6H-isoindolo[2,1-a]indole-3-carboxylate] returned a half-maximal inhibitory concentration (IC50) in assay [1] of more than 1000 nM. For the same compound, the EC50 in the assay with HCV replicon is more than 10000 nM.
On to `O=C(O)c1ccc2c(C3CCCCC3)c3n(c2c1)Cc1ccccc1-3` [Example 7], for which, in assay [1], the IC50 was in the range of 100 to 1000 nM. Moreover, in the assay with HCV replicon, the EC50 is more than 10000 nM.
For `COC(=O)c1ccc2c(C3CCCCC3)c3n(c2c1)C(O)c1ccccc1-3` (stereo not shown) [Example 8], in assay [1], the IC50 is more than 1000 nM. Besides, in the assay on HCV replicon, the EC50 is 1000 to 10000 nM.
As to `COC(=O)c1ccc2c(C3CCCCC3)c3n(c2c1)CC(=O)Nc1cccnc1-3` [Example 14, Methyl 13-cyclohexyl-6,7-dihydro-6-oxo-5H-pyrido[3′,2′:5,6][1,4]diazepino[1,7-a]indole-10-carboxylate], the IC50 in assay [1] is more than 1000 nM. For the same compound, in the assay on HCV replicon, the EC50 was more than 10000 nM.
The like results for `O=C1Cn2c(c(C3CCCCC3)c3ccc(C(=O)O)cc32)-c2ncccc2N1` [Example 15, 13-cyclohexyl-6,7-dihydro-6-oxo-5H-pyrido[3′,2′:5,6][1,4]diazepino[1,7-a]indole-10-carboxylic acid] were, in that order, 100 to 1000 nM and 1000 to 10000 nM.
Turning to `CCOC(=O)c1cc2ccccc2c2c(C3CCCCC3)c3ccc(C(=O)OC)cc3n12` [Example 16, 6-ethyl-9-methyl-12-cyclohexyl-indolo[2,1-a]isoquinoline-6,9-dicarboxylic acid], the IC50 in assay [1] was more than 1000 nM. For the same compound, the EC50 with HCV replicon is more than 10000 nM.
On to `O=C(O)c1ccc2c(C3CCCCC3)c3n(c2c1)CC=Cc1ccccc1-3` [Example 18, 13-cyclohexyl-7H-indolo[2,1-a][2]benzazepine-10-carboxylic acid], for which the IC50 in assay [1] was more than 1000 nM. Besides, the EC50 in the assay with HCV replicon was 1000 to 10000 nM.
For `CN(C)S(=O)(=O)NC(=O)c1ccc2c(C3CCCCC3)c3n(c2c1)CC=Cc1ccccc1-3` [Example 19, 13-cyclohexyl-N-(dimethylaminosulfonyl)-7H-indolo[2,1-a][2]benzazepine-10-carboxamide], in assay [1], the half-maximal inhibitory concentration (IC50) is 100 to 1000 nM. Also, in the assay with HCV replicon, the EC50 was in the range of 100 to 1000 nM.
`COC(=O)c1ccc2c(C3CCCCC3)c3n(c2c1)CC(=O)Nc1ccccc1-3` [Example 20, Methyl 13-cyclohexyl-6,7-dihydro-6-oxo-5H-indolo[1,2-d][1,4]benzodiazepine-10-carboxylate]: the IC50 in assay [1] is more than 1000 nM. Also, in the assay on HCV replicon, the EC50 lay within 1000 to 10000 nM.
Compound `O=C1Cn2c(c(C3CCCCC3)c3ccc(C(=O)O)cc32)-c2ccccc2N1` [Example 21, 13-cyclohexyl-6,7-dihydro-6-oxo-5H-indolo[1,2-d][1,4]benzodiazepine-10-carboxylic acid] gave an IC50 in assay [1] of 100 to 1000 nM. In addition, in the assay on HCV replicon, the EC50 is 100 to 1000 nM.
Regarding `CN1C(=O)Cn2c(c(C3CCCCC3)c3ccc(C(=O)O)cc32)-c2ccccc21` [Example 22, 13-cyclohexyl-6,7-dihydro-6-oxo-5-methyl-5H-indolo[1,2-d][1,4]benzodiazepine-10-carboxylic acid], the IC50 in assay [1] was in the range of 100 to 1000 nM. In addition, the EC50 with HCV replicon is 100 to 1000 nM.
